# Assay results published in PMC8803428, “Pharmacokinetics of Ginsenoside Rb1, Rg3, Rk1, Rg5, F2, and Compound K from Red Ginseng Extract in Healthy Korean Volunteers” (Evidence-based Complementary and Alternative Medicine : eCAM, 2022).
# Like-named read-outs stand apart in the source and are kept apart here.
# Columns and labels:
# [1] = Stability of the ginsenosides in human plasma (QC samples, LC-MS/MS method validation); type: in vitro ADME; conditions: human; for Short-term stability, concentration found: 19 h; for Autosampler stability, concentration found: 34 h; for Long-term stability, concentration found: 50 days
# Description: The LC-MS/MS method was validated to determine selectivity, lower limits of quantification (LLOQ), accuracy, precision, recovery, matrix effect, and stability, according to the guideline for validating the bioanalytical method. The selectivity of the method was evaluated by comparison of blank plasma from six different men to the corresponding spiked plasma sample at the level of LLOQ to investigate the potential interferences at the LC chromatographic conditions for ginsenoside analytes and IS. The signal-to-noise ratio (S/N) of the LLOQ sample was at least five times the response compared to the blank samples. Each calibration curve was constructed by plotting the peak area ratio (y) of the analyte to IS against the spiked concentrations (x) of each analyte. Linearity was assessed by weighted (1/x^2) least squares regression analysis. The LLOQ was defined as the lowest concentration on the calibration curve with an S/N ratio of 10, where the precision and accuracy bias were within ±20% by five replicate analyses. The intra- and interday precision and accuracy assessments were performed at four concentrations with five replicates on the same day and three consecutive days, respectively. The acceptance criterion recommended by the guideline of precision and the accuracy was ±15% of the nominal concentration. The recovery of the seven ginsenosides was determined at three QC levels with three replicates by comparing the peak areas of plasma extracts spiked with analytes before extraction with those of the postextraction spiked samples at the same concentration. The matrix effects were investigated by comparing the peak areas of the analytes dissolved in the pretreated blank plasma with the corresponding concentrations prepared in the reconstitution solution with three replicates. The stability of the analytes in human plasma was assessed by analyzing five replicates of plasma samples at low, medium, and high QC levels under four different conditions. Short-term stability was evaluated after the exposure of QC samples to room temperature for 19 h before processing and analysis. The freeze and thaw stability was tested after three repeated cycles of thawing at room temperature and freezing at approximately −70°C. The long-term stability was assessed after storage at approximately −70°C for 50 days. The post-preparative stability was examined after the exposure of processed samples at ambient temperature (stored in an HPLC autosampler) for 34 h.
# [2] = set-up: method as in earlier work; conditions: after oral Korean Red ginseng extract, ref 25 (Kim et al.); cited from earlier work
# [3] = Pharmacokinetics of ginsenosides in plasma after a single oral dose of RG or BRG capsules in healthy Korean men (LC-MS/MS); type: in vivo, human; conditions: in vivo; for half-life: T 1/2; for Tmax: T max
# Text: This study was designed as a randomized, open-label, single-dose, crossover study with washout every 1 week to evaluate the pharmacokinetics and safety of ginsenosides. Subjects were randomly assigned to either the RG or BRG group during the first period of the study (Figure 2). After 1 week of the washout period, other products that were not received in the first period were provided. All enrolled subjects were hospitalized at Bestian Clinical Trial Center on the day before taking RG or BRG. Subjects were provided regular meals, and additional food intake was restricted after the meal. The next day, the subjects who had maintained the fasting state for 10 h took the capsules corresponding to 5 g of RG and BRG orally. Water was restricted for 1 h before and after intake, and food intake was restricted for 4 h after administration. After 4 h, all subjects received a standardized meal. In addition, lying down or sleeping was prohibited for 8 h after oral administration. Blood samples (5 mL) were collected before dosing and at each time point (0, 0.5, 1, 2, 4, 6, 8, 10, 12, and 24 h) after dosing. All blood samples were collected in heparin-treated tubes. The blood samples were promptly centrifuged at 3,000 rpm for 10 min at 4°C, and the plasma samples obtained were stored in a deep freezer at −70 ± 10°C until assay.
# All analyses were performed using an Agilent 1200 series HPLC system (Agilent) with a Luna Phenyl-Hexyl column (2.0 × 150 mm, 5 μm; Phenomenex, CA, USA). The mobile phase comprised water (solvent A) and acetonitrile (solvent B) containing 0.1% formic acid. The flow rate of the mobile phase was 0.25–0.35 mL/min. The initial condition of 70% solvent A was set to 5% solvent A over 15 min. The content of ginsenosides in human plasma was measured using an API 5500 mass spectrometer (AB Sciex, Foster City, CA, USA) capable of multiple reaction monitoring (MRM). The parent-daughter ion pairs monitored were 845.5 ⟶ 799.6 for Rg1, 1153.6 ⟶ 1107.5 for Rb1, 829.4 ⟶ 783.5 for Rg3, and F2, 811.4 ⟶ 161.0 for Rg5 and Rk1, 667.4 ⟶ 161.0 for CK, and 825.4 ⟶ 779.3 for digoxin as an IS in the negative ion mode. Nitrogen gas was used in the nebulizer and the collision cell. The ion spray voltage was set to 5500 V.
# Standard plasma samples were prepared such that each ginsenoside was in the concentration range of 0.5–100 ng/mL; 10 μL of a standard mixture of six kinds of ginsenosides (Rg1, Rb1, Rg5 + Rk1, F2, and CK) was added to 90 μL of blank human plasma. Rg3 was prepared in the concentration range of 0.2–40 ng/mL. Standard plasma samples (100 μL) were added to 200 μL of methanol containing 50 ng/mL digoxin, an IS. These were mixed for 1 min and then centrifuged at 12,000 rpm for 5 min at 4°C. Then, 100 μL of the supernatant was transferred to an LC vial, and 10 μL was injected into the LC-MS/MS system. Plasma samples stored at −70°C were thawed at room temperature. Samples for LC-MS/MS analysis were pretreated in the same manner as standard plasma samples.
# Plasma concentrations of seven ginsenosides were calculated from calibration curves by calculating the ratio of the peak area of the test substance to the peak area of the IS. The following pharmacokinetic parameters were measured using Phoenix WinNonlin 6.3 (Pharsight Co, CA, USA): time to reach maximum observed plasma drug concentration (Tmax), maximum observed plasma drug concentration (Cmax), area under the plasma drug concentration-time curve from 0 h to the final measured time (AUC(0–t)), area under the plasma drug concentration–time curve from 0 h to infinity (AUC(0–∞)), and terminal elimination half-life (t1/2).
compound,measurement,setting,value
"CC(C)=CCCC(C)(OC1OC(CO)C(O)C(O)C1O)C1CCC2(C)C1C(O)CC1C3(C)CCC(O)C(C)(C)C3CCC12C (stereo not shown) [CK, compound K]","Freeze-thaw stability, concentration found",[1]; 1.5 ng/mL,104.03 ± 7.57%
same,"Freeze-thaw stability, concentration found",[1]; 80 ng/mL,96.17 ± 2.51%
same,"Short-term stability, concentration found",[1]; 1.5 ng/mL,99.90 ± 4.38%
same,"Short-term stability, concentration found",[1]; 80 ng/mL,98.69 ± 2.03%
same,"Autosampler stability, concentration found",[1]; 1.5 ng/mL,101.24 ± 4.59%
same,"Autosampler stability, concentration found",[1]; 80 ng/mL,99.56 ± 1.44%
same,"Long-term stability, concentration found",[1]; 1.5 ng/mL,103.25 ± 4.03%
same,"Long-term stability, concentration found",[1]; 80 ng/mL,103.02 ± 5.53%
same,Cmax,[2],8.35 ± 1.97 ng/mL
same,half-life of CK compared with that of Rb1,[2],seven times shorter
same,detection in plasma at the initial time point (0 h) of the second treatment period,[3],did not detect
same,"AUC(0–t) of CK, times higher than that of F2","[3]; male, human",> 5.03 times
same,mean Tmax in the RG group relative to the BRG group (times lower),"[3]; male, human",approximately 1.71 times
same,"AUC(0–t) in the BRG group, times higher than in the RG group","[3]; male, human, po",> 28.0 times
same,AUC(0–∞),"[3]; male, human, po",3.72 ± 7.91 ng·h/mL
same,T 1/2,"[3]; male, human, po",1.36 ± 2.61 h
same,T max,"[3]; male, human, po",4.77 ± 3.61 h
same,AUC(0-inf),"[3]; male, human, po",457 ± 259 ng·h/mL
same,half-life,"[3]; male, human, po",7.72 ± 4.66 h
same,Tmax,"[3]; male, human, po",8.15 ± 10.2 h
"CC(C)=CCC[C@](C)(O[C@@H]1O[C@H](CO)[C@@H](O)[C@H](O)[C@H]1O)[C@H]1CC[C@]2(C)[C@@H]1[C@H](O)C[C@@H]1[C@@]3(C)CC[C@H](O[C@@H]4O[C@H](CO)[C@@H](O)[C@H](O)[C@H]4O)C(C)(C)[C@@H]3CC[C@]12C [Ginsenoside F2, ginsenoside F2]","Freeze-thaw stability, concentration found",[1]; 1.5 ng/mL,98.29 ± 4.06%
same,"Freeze-thaw stability, concentration found",[1]; 80 ng/mL,95.95 ± 1.10%
same,"Short-term stability, concentration found",[1]; 1.5 ng/mL,99.21 ± 7.70%
same,"Short-term stability, concentration found",[1]; 80 ng/mL,96.53 ± 4.04%
same,"Autosampler stability, concentration found",[1]; 1.5 ng/mL,99.02 ± 8.01%
same,"Autosampler stability, concentration found",[1]; 80 ng/mL,96.29 ± 0.99%
same,"Long-term stability, concentration found",[1]; 1.5 ng/mL,101.83 ± 3.76%
same,"Long-term stability, concentration found",[1]; 80 ng/mL,99.02 ± 2.04%
same,detection in plasma at the initial time point (0 h) of the second treatment period,[3],did not detect
same,AUC(0-t),"[3]; male, human, po, AUC(0–t)",74.1 ± 33 ng·h/mL
same,AUC(0-inf),"[3]; male, human, po",90.7 ± 43 ng·h/mL
same,Cmax,"[3]; male, human, po, C max",5.83 ± 2.35 ng/mL
same,half-life,"[3]; male, human, po",9.77 ± 7.71 h
same,Tmax,"[3]; male, human, po",6.62 ± 1.71 h
